Key:
[1] = system: lymphoblasts from BD patients with a Cln3 mutation; experiment: Cellular autofluorescence (AF) in BD/JNCL patient lymphoblasts by flow cytometry; assay type: cell-based, human
Experimental: Autofluorescence (AF): AF levels in human blood cells were measured in 30,000 cells using flow cytometry at FL-1 with the BD FACSCalibur™ (BD Biosciences) (Excitation; 488 nm, Emission; 530±15 nm) (for FIGS. 1A-1C). AF levels in lymphoblasts were measured in 20,000 cells using flow cytometry with Attune Flow Cytometer (Thermo Fisher Scientific) (Excitation; 488 nm, Emission; 530 nm) (for FIGS. 2A and 2B).

PLA2G7 = experiment: RNA-sequencing in iPS cell-derived neurons: PLA2G7 expression; assay type: cell-based; settings: WT and CLN3 KO human iPS cell-derived neurons, treated 2 weeks vs mock, FIG. 5B
Text: (§1) RNA-sequencing in iPS cell-derived neurons: Cells were differentiated from iPS cells and treated either with 0.1% DMSO or Compound A for 2 weeks. RNAs were extracted using RNeasy Mini Kit (QIAGEN). The libraries for RNA-sequencing were constructed by SMART-Seq v4 Ultra Low Input RNA Kit (Takara bio).

PLA2G4A = experiment: RNA-sequencing in iPS cell-derived neurons: PLA2G4A expression; assay type: cell-based; settings: WT and CLN3 KO human iPS cell-derived neurons, treated 2 weeks vs mock, FIG. 5A
Text: as §1

[2] = system: lymphoblasts from BD patients with a Cln3 mutation; experiment: LAMP1 staining of BD/JNCL patient lymphoblasts; assay type: cell-based, human
Experimental: (§2) LAMP1 staining: Lymphoblasts were fixed with methanol and incubated overnight at 4° C. with anti-human LAMP1 antibody (1:400, Cell Signaling Technology) followed by secondary antibody (Alexa Fluor 488 donkey anti-rabbit IgG, 1:1000, Thermo Fisher Scientific). Neuronal cells differentiated from iPS cells were fixed with 4% paraformaldehyde (PFA) and incubated overnight at 4° C. with anti-human LAMP1 antibody (1:400, Cell Signaling Technology) followed by a secondary antibody (Alexa Fluor 488 donkey anti-rabbit IgG, 1:1000, Thermo Fisher Scientific). White blood cells from mice were fixed with methanol and incubated overnight at 4° C. with LAMP1 antibody (1:1000, Abcam) followed by a secondary antibody (Alexa Fluor 488 donkey anti-rabbit IgG, 1:1000, Thermo Fisher Scientific). KEYENCE BZ-X710 and BX-Z analyzer software were used for imaging quantification.

Cln3−/− mice [3] = experiment: LAMP1 staining of peripheral white blood cells, BD animal model; assay type: in vivo; settings: CLN3 knockout (KO) mice, FIG. 4C
Experimental: as §2
Isolation of white blood cells from peripheral blood of mice: 20 μL of blood of mice was lysed with ACK lysing buffer (Lonza) for 1 min. After washing, cells were resuspended with RPMI.

Cln3−/− mice [4] = experiment: Novel object recognition test, BD animal model; assay type: in vivo; settings: CLN3 knockout (KO) mice, FIG. 4D
Experimental: Novel Object Recognition Test (NORT): The test was carried out according to the previously validated method (Hatayama et al., Neuroscience 265 (2014) 217-25). All mice were habituated for 1 hour to the NORT arena one day before the test day. On the day of testing, the mice were given two 5-min trials (T1 with two identical objects and T2 with a familiar object from T1 and a novel object), separated by 1-hour interval. The discrimination index (DI) ((time spent exploring the novel object−time spent exploring the familiar object)/total exploration time) was calculated for T2 trials.

[5] = system: animal model of GM1 gangliosidosis; settings: cited from earlier work
[6] = system: Neuronal cells differentiated from Cln3 mutant iPSCs; experiment: LAMP1 staining of neuronal cells differentiated from Cln3 mutant iPSCs; assay type: cell-based, human; settings: 0.4-10 μM, n=2-3, FIG. 2D
Experimental: as §2

α-galactosidase A = settings: cells from patients with Fabry disease; cited from earlier work

CC(C)CN1CCCn2c1nc1ccc(NCCN(C)C)cc1c2=O [Compound A, 8-{[2-(dimethylamino)ethyl]amino}-1-(2-methylpropyl)-1,2,3,4-tetrahydro-6H-pyrimido[2,1-b]quinazolin-6-one]
elevated autofluorescence (AF) in Batten disease (BD) lymphoblasts ([1]; FIG. 4A): amelioration of elevated autofluorescence (AF) | expression of PLA2G7 (PLA2G7): significantly influenced the expression of PLA2 genes | expression of PLA2G4A (PLA2G4A): significantly influenced the expression of PLA2 genes | elevated LAMP1 signal in Batten disease (BD) lymphoblasts ([2]; FIG. 4B): amelioration of elevated LAMP1 signal | elevated LAMP1 signal in peripheral white blood cells of BD mice (Cln3−/− mice [3]): amelioration of elevated LAMP1 signal | cognitive deficits (novel object recognition test) of BD mice (Cln3−/− mice [4]): Amelioration of cognitive deficits

CCCCCCCCNC1C=C(CO)C(O)C(O)C1O (stereo not drawn) [N-octyl 4-epi-β-valienamine (NOEV), N-octyl 4-epi-β-valienamine]
residual activity in the brain [5]: increased residual activity in the brain

CC(C)c1nc(N(C)S(C)(=O)=O)nc(-c2ccc(F)cc2)c1/C=C/[C@@H](O)C[C@@H](O)CC(=O)O [rosuvastatin]
elevated autofluorescence (AF) of JNCL patient lymphoblasts ([1]; 10 μM, FIG. 2B): decreased it | anti-LAMP1 staining of JNCL patient lymphoblasts ([2]; 10 μM, n=3, FIG. 2C): decreased it | lysosomal deficits found in BD lymphoblasts (LAMP1 expression and AF levels) ([2]; cites FIGS. 2C, 2D): ameliorate the lysosomal deficits | anti-LAMP1 staining of neuronal cells differentiated from Cln3 mutant iPSCs [6]: dose-dependently decreased it

OC[C@H]1NC[C@H](O)[C@@H](O)[C@H]1O [1-deoxygalactonojirimycin (DGJ), 1-deoxygalactonojirimycin]
residual α-galactosidase A activity (α-galactosidase A): enhance residual α-galactosidase A activity

— patent publication US20250144101A1, “LYSOSOMAL DYSFUNCTION IN NEUROLOGICAL AND PSYCHIATRIC DISORDERS” (The Johns Hopkins University, priority 2022, published 2025)
